Data from US10596164B2, “Anti-clostridium compounds” (Nederlandse Organisatie voor …, priority 2014, dated 2020).
≈ marks a conversion by molar mass, not a printed value. Where two headings read alike, the source gives them in different places.

How the values were obtained:
[1] = test system: C. difficile ATCC 43599 vegetative cells; assay: MIC test with asymmetrical compounds on C. difficile vegetative cells; type: cell-based, Clostridium difficile; settings: for MIC: Clostridioides difficile
Method: (§1) Growth inhibition experiments were performed according to the following protocol: […] Microtiter plate wells were filled with 495 microliter of this suspension to which 5 microliter of selected compounds dissolved in DMSO was added (final concentration of each compound was 10 microgram per ml). This was all performed in an anaerobic cabinet. After filling the microtiter plate was sealed and incubated for 22 hours at 37° C. Inhibiting compounds were selected by visually determining growth inhibition. According to the same protocol as in Example 3 asymmetrical compounds were tested on their inhibitory effect of C. difficile, but also on other bacterial species, such as S. aureus and B. cereus. In the below tables the compounds and the MIC values that have been found for the various micro-organisms are listed. In the tests described in Table 4 and 5 the medium indicated as 'flora' is the SIEM medium described in […], Schols H A, Nauta A, Schoterman […]. High-throughput analysis of the impact of antibiotics on the human intestinal microbiota composition.

[2] = test system: C. difficile ATCC 43599 spores; assay: MIC test with asymmetrical compounds on C. difficile spores; type: cell-based, Clostridium difficile; settings: for MIC: Clostridioides difficile
Method: as §1

[3] = test system: Staphylococcus aureus ATCC 6538; assay: MIC test with asymmetrical compounds on S. aureus; type: cell-based
Method: as §1

[4] = test system: Bacillus cereus ATCC 11778; assay: MIC test with asymmetrical compounds on B. cereus; type: cell-based
Method: as §1

[5] = ATCC43599, 22 h, Table 4, SAB model medium, tested concentrations 1.2 μg/ml-0.03 μg/ml if not indicated otherwise, read-out: MIC veg. cells SAB model medium
[6] = ATCC43599, Table 3, vegetative cells, tested concentrations 10 μg/ml-0.003 μg/ml if not indicated otherwise, read-out: MIC Veg. cells
[7] = ATCC43599, Table 4, flora (SIEM) medium, tested concentrations 1.2 μg/ml-0.03 μg/ml if not indicated otherwise, read-out: MIC veg. cells flora
[8] = ATCC43599, 22 h, Table 4, SAB model medium, tested concentrations 1.2 μg/ml-0.03 μg/ml if not indicated otherwise, read-out: MIC spores SAB model medium
[9] = ATCC43599, Table 3, spores, tested concentrations 10 μg/ml-0.003 μg/ml if not indicated otherwise, read-out: MIC spores
[10] = ATCC43599, Table 4, flora (SIEM) medium, tested concentrations 1.2 μg/ml-0.03 μg/ml if not indicated otherwise, read-out: MIC spores flora
[11] = ATCC6538, Table 5, read-out: MIC S. aureus ATCC 6538
[12] = ATCC11778, Table 5, read-out: MIC B. cereus ATCC 11778
[13] = Table 4, SAB model medium, tested concentrations 1.2 μg/ml-0.03 μg/ml if not indicated otherwise

| SMILES | MIC [1, 5] [µg/mL] | MIC [1, 6] [µg/mL] | MIC [1, 7] [µg/mL] | MIC [2, 8] [µg/mL] | MIC [2, 9] [µg/mL] | MIC [2, 10] [µg/mL] | MIC [3, 11] [µg/mL] | MIC [4, 12] [µg/mL] | further results |
| --- | --- | --- | --- | --- | --- | --- | --- | --- | --- |
| O=C1NC(=O)c2ccc3c4c(ccc1c24)C(=O)N(c1ccccc1O)C3=O [20141155PBmol10] | 0.3 to 0.6 (≈ 0.837 to 1.67 µM) | 0.3 to 0.6 (≈ 0.837 to 1.67 µM) | 0.15 to 0.3 (≈ 0.419 to 0.837 µM) | 0.3 to 0.6 (≈ 0.837 to 1.67 µM) | 0.15 to 0.3 (≈ 0.419 to 0.837 µM) | > 1.2 | 40 (≈ 112 µM) | 4 (≈ 11.2 µM) | – |
| CN[C@H](CC(C)C)C(=O)N[C@H]1C(=O)N[C@@H](CC(N)=O)C(=O)N[C@H]2C(=O)N[C@H]3C(=O)N[C@H](C(=O)N[C@H](C(=O)O)c4cc(O)cc(O)c4-c4cc3ccc4O)[C@H](O)c3ccc(c(Cl)c3)Oc3cc2cc(c3O[C@@H]2O[C@H](CO)[C@@H](O)[C@H](O)[C@H]2O[C@H]2C[C@](C)(N)[C@H](O)[C@H](C)O2)Oc2ccc(cc2Cl)[C@H]1O [Vancomycin, reference compound] | – | – | – | – | – | – | – | – | MIC ([1]; ATCC43599, 22 h, read-out: MIC veg. cells SAB model medium): < 0.3 µg/mL; MIC ([1]; ATCC43599, read-out: MIC Veg. cells): < 0.3 µg/mL; MIC ([1]; ATCC43599, read-out: MIC veg. cells flora): < 0.3 µg/mL; MIC ([2]; ATCC43599, 22 h, read-out: MIC spores SAB model medium): < 0.3 µg/mL; MIC ([2]; ATCC43599, read-out: MIC spores): < 0.3 µg/mL; MIC ([2]; ATCC43599, read-out: MIC spores flora): < 0.3 µg/mL; MIC ([3]; ATCC6538, read-out: MIC S. aureus ATCC 6538): 1 µg/mL (≈ 0.69 µM); MIC ([4]; ATCC11778, read-out: MIC B. cereus ATCC 11778): 1 µg/mL (≈ 0.69 µM) |
| CC(=O)c1cccc(N2C(=O)c3ccc4c5c(ccc(c35)C2=O)C(=O)NC4=O)c1 [20141155PBmol17] | 0.03 to 0.07 (≈ 0.0781 to 0.182 µM) | 0.01 to 0.03 (≈ 0.026 to 0.0781 µM) | 0.3 to 0.6 (≈ 0.781 to 1.56 µM) | 0.03 to 0.07 (≈ 0.0781 to 0.182 µM) | 0.01 to 0.03 (≈ 0.026 to 0.0781 µM) | > 1.2 | > 100 | 4 (≈ 10.4 µM) | – |
| O=C1NC(=O)c2ccc3c4c(ccc1c24)C(=O)N(Cc1cccnc1)C3=O [20141155PBmol13] | – | – | – | – | – | – | > 100 | > 100 | – |

Further lines, with some results ahead:

| MIC [1, 5] [µg/mL] | MIC [1, 6] [µg/mL] | MIC [1, 7] [µg/mL] | MIC [2, 8] [µg/mL] | MIC [2, 9] [µg/mL] | MIC [2, 10] [µg/mL] | MIC [3, 11] [µg/mL] | MIC [4, 12] [µg/mL] | SMILES | further results |
| --- | --- | --- | --- | --- | --- | --- | --- | --- | --- |
| 0.07 to 0.15 (≈ 0.189 to 0.405 µM) | 0.07 to 0.15 (≈ 0.189 to 0.405 µM) | 0.3 to 0.6 (≈ 0.81 to 1.62 µM) | 0.07 to 0.15 (≈ 0.189 to 0.405 µM) | 0.03 to 0.07 (≈ 0.081 to 0.189 µM) | > 1.2 | > 100 | 100 (≈ 270 µM) | Cc1ccc(C)c(N2C(=O)c3ccc4c5c(ccc(c35)C2=O)C(=O)NC4=O)c1 [20141155PBmol23] | – |
| 0.07 to 0.15 (≈ 0.207 to 0.443 µM) | 0.07 to 0.15 (≈ 0.207 to 0.443 µM) | 0.15 to 0.3 (≈ 0.443 to 0.887 µM) | 0.07 to 0.15 (≈ 0.207 to 0.443 µM) | 0.03 to 0.07 (≈ 0.0887 to 0.207 µM) | 0.15 to 0.3 (≈ 0.443 to 0.887 µM) | > 100 | 4 (≈ 11.8 µM) | O=C1NC(=O)c2ccc3c4c(ccc1c24)C(=O)N(CCCCO)C3=O [20141155PBmol41] | – |
| 0.3 to 0.6 (≈ 0.967 to 1.93 µM) | 0.15 to 0.3 (≈ 0.483 to 0.967 µM) | 0.07 to 0.15 (≈ 0.226 to 0.483 µM) | 0.3 to 0.6 (≈ 0.967 to 1.93 µM) | 0.15 to 0.3 (≈ 0.483 to 0.967 µM) | 0.6 to 1.2 (≈ 1.93 to 3.87 µM) | 40 (≈ 129 µM) | 4 (≈ 12.9 µM) | O=C1NC(=O)c2ccc3c4c(ccc1c24)C(=O)N(CCO)C3=O [20141155PBmol57] | – |
| – | – | – | – | – | – | > 100 | > 100 | O=C1NC(=O)c2ccc3c4c(ccc1c24)C(=O)N(c1ccccc1)C3=O [20141155PBmol19] | MIC Veg. cells ([1]; Table 3, vegetative cells, tested concentrations 10 μg/ml-0.003 μg/ml if not indicated otherwise): 0.01 to 0.03 µg/mL; MIC veg. cells SAB model medium [1, 13]: <0.03 µg/mL; MIC veg. cells flora ([1]; Table 4, flora (SIEM) medium, tested concentrations 1.2 μg/ml-0.03 μg/ml if not indicated otherwise): 0.15 to 0.3 µg/mL; MIC spores ([2]; Table 3, spores, tested concentrations 10 μg/ml-0.003 μg/ml if not indicated otherwise): 0.007 to 0.01 µg/mL; MIC spores SAB model medium [2, 13]: <0.03 µg/mL |
| 0.03 to 0.07 (≈ 0.0856 to 0.2 µM) | 0.03 to 0.07 (≈ 0.0856 to 0.2 µM) | 0.3 to 0.6 (≈ 0.856 to 1.71 µM) | 0.03 to 0.07 (≈ 0.0856 to 0.2 µM) | 0.01 to 0.03 (≈ 0.0285 to 0.0856 µM) | 0.3 to 0.6 (≈ 0.856 to 1.71 µM) | > 100 | > 100 | O=C1NC(=O)c2ccc3c4c(ccc1c24)C(=O)N(CC1CCCO1)C3=O (centres unmarked) [20141155PBmol30] | – |
